Some results are limits rather than exact numbers.

The target of the test is T1, RORγt ligand-binding domain (RORγt-LBD) (Homo sapiens, UniProt P51449).
T1 construct: 20 nM recombinantly expressed RORγ-LBD fused to GST
T1 sequence (P51449 269-508 limits assumed): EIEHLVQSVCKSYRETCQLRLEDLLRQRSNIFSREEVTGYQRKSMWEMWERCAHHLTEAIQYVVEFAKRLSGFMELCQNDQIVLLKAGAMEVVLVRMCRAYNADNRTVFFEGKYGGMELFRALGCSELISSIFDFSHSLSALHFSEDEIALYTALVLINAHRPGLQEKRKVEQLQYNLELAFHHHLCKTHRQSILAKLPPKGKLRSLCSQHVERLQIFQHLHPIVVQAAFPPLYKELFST
The test can be described thus: Time-resolved FRET (TR-FRET) RORγt coactivator assay. It is filed as biochemical. The note with it: GST-RORγ-LBD, biotinylated RIP140 peptide, coactivator displacement. The source says: Time-resolved FRET (TR-FRET) RORγt coactivator assay was used to identify RORγ modulator compounds with ligand-dependent coactivator displacement. The assay uses a d2-labeled anti-GST antibody, synthetic N-terminally biotinylated peptide which is derived from nuclear receptor coactivator protein RIP140, and a RORγt ligand-binding domain (RORγt-LBD) that is tagged with glutathione-S-transferase (GST). The influence of compounds on the RORγ-peptide interaction relies on the binding dependent energy transfer from a donor to an acceptor fluorophore attached to the binding partner of interest. […] For reduction of background from compound fluorescence, TR-FRET method makes use of generic fluorophore labels and time resolved detection.
The assays were done in a final volume of 20 μl in a 384 well plate in a CHAPS buffer (2 mM CHAPS; 1 mM DTT, 2 mM EDTA; 0.1% BSA), containing 20 nM recombinantly expressed RORγ-LBD fused to GST, 30 nM N-terminally biotinylated peptide, 1 nM streptavidin-terbium conjugate and 20 nM d2 labeled-anti-GST. Test compounds were diluted using 10 mM stock solution. The range of the final compound concentrations used in this test was from 0.3 nM to 30 μM (logarithmic scale). DMSO content of the samples was kept at 1%. The assay was equilibrated for 2 hours in the dark at room temperature in 384 well plates (Falcon). The signal was detected by an Ultra384 reader (TECAN). The results were visualized by plotting the ratio between the emitted light at 665 nm and 620 nm. A basal level of RORγ-peptide formation is observed in the absence of added compound. Compounds that promote coactivator displacement induce a concentration-dependent decrease in time-resolved fluorescent signal. Data were collected and analyzed using GraphPad Prism software (GraphPad Software V5.02, San Diego Calif. USA). IC50 in μM and Emax in % were reported for each compound.
On the technique in general: In TR-FRET formats the signal depends on donor and acceptor labels being close together.
In the case of `Cc1ccc(C(NC(=O)Cc2ccc3[nH]cc(CCC(=O)OC(C)(C)C)c3c2)c2ccccc2)c2[nH]ccc12` (stereo not shown) [Cpd. 228, tert-butyl 3-[5-({[(4-methyl-1H-indol-7-yl)(phenyl)methyl]carbamoyl}methyl)-1H-indol-3-yl]propanoate], the IC50 (in general, the concentration that inhibits the measured activity by half) fell in the range of 1000 to 10000 nM.
With `CCCCC(NC(=O)Cc1ccc2[nH]cc(CCC(=O)OC(C)(C)C)c2c1)c1ccc(C)cc1N1CCCCC1` (stereo not shown) [Cpd. 230, tert-butyl 3-{5-[({1-[4-methyl-2-(piperidin-1-yl)phenyl]pentyl}carbamoyl)methyl]-1H-indol-3-yl}propanoate], the IC50 fell in the range of 1000 to 10000 nM.
To `CC(C)(C)OC(=O)CCc1c[nH]c2ccc(CC(=O)NC(c3ccccc3)c3ccccc3N3CCCC(F)(F)C3)cc12` (stereo not shown) [Cpd. 232, tert-butyl 3-{5-[({[2-(3,3-difluoropiperidin-1-yl)phenyl](phenyl)methyl}carbamoyl)methyl]-1H-indol-3-yl}propanoate] belongs less than 1000 nM; to `CC(C)(C)OC(=O)NC(=N)NC(=O)CCc1c[nH]c2ccc(CC(=O)NC(c3ccccc3)c3ccccc3N3CCCCC3)cc12` (stereo not shown) [Cpd. 234, tert-butyl N-[(3-{5-[({phenyl[2-(piperidin-1-yl)phenyl]methyl}carbamoyl)methyl]-1H-indol-3-yl}propanamido)methanimidoyl]carbamate], 1000 to 10000 nM.
For the compound `CCOC(=O)CCc1n[nH]c2ccc(CC(=O)NC(c3ccccc3)c3ccccc3N3CCCCC3)cc12` (stereo not shown) [Cpd. 236, ethyl 3-{5-[({phenyl[2-(piperidin-1-yl)phenyl]methyl}carbamoyl)methyl]-1H-indazol-3-yl}propanoate], the half-inhibitory concentration (IC50) is less than 1000 nM.
Turning to `COC(=O)Cc1c[nH]c2ccc(CC(=O)NC(c3ccccc3)c3cccc(N4CCCCC4)c3)cc12` (stereo not shown) [Cpd. 238, methyl 2-{5-[({phenyl[3-(piperidin-1-yl)phenyl]methyl}carbamoyl)methyl]-1H-indol-3-yl}acetate], the IC50 is 1000 to 10000 nM.
For `CC(C)CC(NC(=O)Cc1ccc2[nH]cc(CCC(=O)OC(C)(C)C)c2c1)c1ccccc1OC(C)C` (stereo not shown) [Cpd. 240, tert-butyl 3-{5-[({3-methyl-1-[2-(propan-2-yloxy)phenyl]butyl}carbamoyl)methyl]-1H-indol-3-yl}propanoate] the value was less than 1000 nM; for `CCOc1ccc(C(NC(=O)Cc2ccc3[nH]cc(CCC(=O)OC(C)(C)C)c3c2)c2ccccc2)c(OCC)c1` (stereo not shown) [Cpd. 246, tert-butyl 3-[5-({[(2,4-diethoxyphenyl)(phenyl)methyl]carbamoyl}methyl)-1H-indol-3-yl]propanoate], less than 1000 nM.
For `Cc1ccc(C(CC(C)C)NC(=O)Cc2ccc3[nH]cc(CCC(=O)OC(C)(C)C)c3c2)c(OC(C)C)c1` (stereo not shown) [Cpd. 248, tert-butyl 3-{5-[({3-methyl-1-[4-methyl-2-(propan-2-yloxy)phenyl]butyl}carbamoyl)methyl]-1H-indol-3-yl}propanoate] the value was 1000 to 10000 nM; for `Cc1ccc(C(NC(=O)Cc2ccc3[nH]cc(CCC(=O)OC(C)(C)C)c3c2)c2ccccc2)c(N2CCCCCC2)c1` (stereo not shown) [Cpd. 250, tert-butyl 3-{5-[({[2-(azepan-1-yl)-4-methylphenyl](phenyl)methyl}carbamoyl)methyl]-1H-indol-3-yl}propanoate], less than 1000 nM; for `Cc1cc(C(NC(=O)Cc2ccc3[nH]cc(CCC(=O)OC(C)(C)C)c3c2)c2ccccc2N2CCCCC2)oc1C` (stereo not shown) [Cpd. 252, tert-butyl 3-[5-({[(4,5-dimethylfuran-2-yl)[2-(piperidin-1-yl)phenyl]methyl]carbamoyl}methyl)-1H-indol-3-yl]propanoate], 1000 to 10000 nM.
In the case of `Cc1ccc(C(NC(=O)Cc2ccc3[nH]cc(CCC(=O)OC(C)(C)C)c3c2)c2ccccc2OC(C)C)o1` (stereo not shown) [Cpd. 254, tert-butyl 3-[5-({[(5-methylfuran-2-yl)[2-(propan-2-yloxy)phenyl]methyl]carbamoyl}methyl)-1H-indol-3-yl]propanoate], the half-maximal inhibitory concentration (IC50) is less than 1000 nM.
For `COC(=O)Cc1c[nH]c2ccc(CC(=O)NC(c3ncccn3)c3ccc(C)cc3Br)cc12` (stereo not shown) [Cpd. 256, methyl 2-[5-({[(2-bromo-4-methylphenyl)(pyrimidin-2-yl)methyl]carbamoyl}methyl)-1H-indol-3-yl]acetate] the value was 1000 to 10000 nM; for `C#CCC(NC(=O)Cc1ccc2[nH]cc(CCC(=O)OC(C)(C)C)c2c1)c1ccccc1N1CCCCC1` (stereo not shown) [Cpd. 260, tert-butyl 3-{5-[({1-[2-(piperidin-1-yl)phenyl]but-3-yn-1-yl}carbamoyl)methyl]-1H-indol-3-yl}propanoate], 1000 to 10000 nM.
For `Cc1ccc(Cl)c(C(NC(=O)Cc2ccc3[nH]cc(CCC(=O)O)c3c2)c2ccccc2)c1` (stereo not shown) [compound 42, 3-[5-({[(2-chloro-5-methylphenyl)(phenyl)methyl]carbamoyl}methyl)-1H-indol-3-yl]propanoic acid] the value was less than 1000 nM; for `Cc1cc(Br)ccc1C(NC(=O)Cc1ccc2[nH]cc(CCC(=O)O)c2c1)c1ccccc1` (stereo not shown) [compound 44, 3-[5-({[(4-bromo-2-methylphenyl)(phenyl)methyl]carbamoyl}methyl)-1H-indol-3-yl]propanoic acid], less than 1000 nM.
With `Cc1cc(F)ccc1C(NC(=O)Cc1ccc2[nH]cc(CCC(=O)O)c2c1)c1ccccc1` (stereo not shown) [compound 46, 3-[5-({[(4-fluoro-2-methylphenyl)(phenyl)methyl]carbamoyl}methyl)-1H-indol-3-yl]propanoic acid], the IC50 is less than 1000 nM.
On to `Nc1ccccc1C(NC(=O)Cc1ccc2[nH]cc(CCC(=O)O)c2c1)c1ccccc1` (stereo not shown) [compound 52, 3-[5-({[(2-aminophenyl)(phenyl)methyl]carbamoyl}methyl)-1H-indol-3-yl]propanoic acid], for which the IC50 is 1000 to 10000 nM.
Turning to `CN(C)c1ccccc1C(NC(=O)Cc1ccc2[nH]cc(CCC(=O)O)c2c1)c1ccccc1` (stereo not shown) [compound 54, 3-{5-[({[2-(dimethylamino)phenyl](phenyl)methyl}carbamoyl)methyl]-1H-indol-3-yl}propanoic acid], the IC50 is less than 1000 nM.
Regarding `O=C(O)CCc1c[nH]c2ccc(NC(=O)NC(c3ccccc3)c3ccccc3N3CCCCC3)cc12` (stereo not shown) [compound 56, 3-{5-[({phenyl[2-(piperidin-1-yl)phenyl]methyl}carbamoyl)amino]-1H-indol-3-yl}propanoic acid], the 50% inhibitory concentration (IC50) is less than 1000 nM.
Consider `CC(C)CC(NC(=O)Cc1ccc2[nH]cc(CCC(=O)O)c2c1)c1ccccc1N1CCOCC1` (stereo not shown) [compound 58, 3-{5-[({3-methyl-1-[2-(morpholin-4-yl)phenyl]butyl}carbamoyl)methyl]-1H-indol-3-yl}propanoic acid], for which the IC50 is less than 1000 nM.
`NC(=O)c1ccc(C(NC(=O)Cc2ccc3[nH]cc(CCC(=O)O)c3c2)c2ccccc2)c(N2CCCC2)c1` (stereo not shown) [compound 63, 3-{5-[({[4-carbamoyl-2-(pyrrolidin-1-yl)phenyl](phenyl)methyl}carbamoyl)methyl]-1H-indol-3-yl}propanoic acid] returned an IC50 of 1000 to 10000 nM.
In turn, `O=C(O)Cc1c[nH]c2ccc(CC(=O)NC(c3ccccc3)c3ccc(Br)cc3N3CCCC3)cc12` (stereo not shown) [compound 67, 2-{5-[({[4-bromo-2-(pyrrolidin-1-yl)phenyl](phenyl)methyl}carbamoyl)methyl]-1H-indol-3-yl}acetic acid] had an IC50 of less than 1000 nM.
`O=C(O)Cc1c[nH]c2ccc(NC(=O)NC(c3ccccc3)c3ccccc3N3CCCCC3)cc12` (stereo not shown) [compound 69, 2-{5-[({phenyl[2-(piperidin-1-yl)phenyl]methyl}carbamoyl)amino]-1H-indol-3-yl}acetic acid]: the IC50 lay in the range of 1000 to 10000 nM.
In turn, `CN(C)c1ccccc1C(NC(=O)Cc1ccc2[nH]cc(CC(=O)O)c2c1)c1ccccc1` (stereo not shown) [compound 71, 2-{5-[({[2-(dimethylamino)phenyl](phenyl)methyl}carbamoyl)methyl]-1H-indol-3-yl}acetic acid] gave an IC50 of 1000 to 10000 nM.
To `O=C(O)Cc1c[nH]c2ccc(CC(=O)NC(c3ccccc3)c3ccccc3N3CCCC3)cc12` (stereo not shown) [compound 73, 2-{5-[({phenyl[2-(pyrrolidin-1-yl)phenyl]methyl}carbamoyl)methyl]-1H-indol-3-yl}acetic acid] belongs 1000 to 10000 nM; to `O=C(O)Cc1c[nH]c2ccc(CC(=O)NC(c3ccccc3)c3ccccc3N3CCCCCC3)cc12` (stereo not shown) [compound 75, 2-{5-[({[2-(azepan-1-yl)phenyl](phenyl)methyl}carbamoyl)methyl]-1H-indol-3-yl}acetic acid], 1000 to 10000 nM; to `O=C(O)CCc1c[nH]c2ccc(CC(=O)NC(c3ccccc3)c3ccccc3N3CCCC3)cc12` (stereo not shown) [compound 79, 3-{5-[({phenyl[2-(pyrrolidin-1-yl)phenyl]methyl}carbamoyl)methyl]-1H-indol-3-yl}propanoic acid], less than 1000 nM.

(Values after patent US9902725B2, “Heterocyclic derivatives as RORgamma modulators” (GENFIT, priority 2014, dated 2018).)
